Measurements published in PubChem BioAssay AID1963829 (Molecular Pharmacology Branch, DTP, NCI, 2024).

These molecules were tested on 935938-334-R-J1-PDC complex spheroid viability (assay: Anticancer human tumor 935938-334-R-J1-PDC patient-derived small intestine adenocarcinoma cell line growth inhibition [POLQ]). Conditions: second compound 0.316 µM; first compound 1 µM; stronger effect = lower value.
How it was run: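 Patient-derived tumour cells were co-cultured with HUVEC and mesenchymal stem cells as multicellular spheroids at 37 °C. They were treated with POLQ inhibitors (novobiocin, ART-558, RP6685) alone or combined with other agents. Top concentrations were at or near clinical Cmax (otherwise 10 microM; SN-38 at 1 microM), decreasing in half-log steps.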
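Further: spheroids exposed to drugs for seven days before viability read; 100% = DMSO vehicle control wells.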

Row | Compound | viability, T/C [%]
1 | COc1ccc([C@@H](O)c2cc(-c3ncnc4cc(N5CCOCC5)ccc34)c(F)cc2Cl)nn1 + COC1C(OC(N)=O)C(O)C(Oc2ccc3c(O)c(NC(=O)c4ccc(O)c(CC=C(C)C)c4)c(=O)oc3c2C)OC1(C)C | 59.3
2 | Nc1ccn(C2OC(CO)C(O)C2(F)F)c(=O)n1 (configuration not stated) + Cc1cccc(N(C)C(=O)C2C(O)CCN2c2nc(C)cc(C(F)(F)F)c2C#N)c1 | 23.4
3 | COc1cc2cc(C(=O)CCC(=O)O)sc2cc1OC + Cc1cccc(N(C)C(=O)C2C(O)CCN2c2nc(C)cc(C(F)(F)F)c2C#N)c1 | 88.9
4 | O=C(c1cc(Cc2n[nH]c(=O)c3ccccc23)ccc1F)N1CCN(C(=O)C2CC2)CC1 + COC1C(OC(N)=O)C(O)C(Oc2ccc3c(O)c(NC(=O)c4ccc(O)c(CC=C(C)C)c4)c(=O)oc3c2C)OC1(C)C | 77.4
5 | O=C(Nc1ccc(O)c(NS(=O)(=O)c2ccc(F)cc2)c1)c1ccc(-c2ccccc2)cc1 + Cc1cccc(N(C)C(=O)C2C(O)CCN2c2nc(C)cc(C(F)(F)F)c2C#N)c1 | 99.2
6 | COc1cc(C2c3cc4c(cc3C(OC3OC5COC(C)OC5C(O)C3O)C3COC(=O)C23)OCO4)cc(OC)c1O (configuration not stated) + Cc1cccc(N(C)C(=O)C2C(O)CCN2c2nc(C)cc(C(F)(F)F)c2C#N)c1 | 40.6
7 | CC1COCCN1c1cc(C2(S(C)(=N)=O)CC2)nc(-c2ccnc3[nH]ccc23)n1 (configuration not stated) + COC1C(OC(N)=O)C(O)C(Oc2ccc3c(O)c(NC(=O)c4ccc(O)c(CC=C(C)C)c4)c(=O)oc3c2C)OC1(C)C | 73
8 | COc1cccc2c1C(=O)c1c(O)c3c(c(O)c1C2=O)CC(O)(C(=O)CO)CC3OC1CC(N)C(O)C(C)O1 (configuration not stated) + Cc1cccc(N(C)C(=O)C2C(O)CCN2c2nc(C)cc(C(F)(F)F)c2C#N)c1 | 19.7

Same assay, conditions: second compound 0.316 µM; first compound 3.16 µM; stronger effect = lower value

Row | Compound | viability, T/C [%]
9 | COc1ccc([C@@H](O)c2cc(-c3ncnc4cc(N5CCOCC5)ccc34)c(F)cc2Cl)nn1 + COC1C(OC(N)=O)C(O)C(Oc2ccc3c(O)c(NC(=O)c4ccc(O)c(CC=C(C)C)c4)c(=O)oc3c2C)OC1(C)C | 66.3
10 | Nc1ccn(C2OC(CO)C(O)C2(F)F)c(=O)n1 (configuration not stated) + Cc1cccc(N(C)C(=O)C2C(O)CCN2c2nc(C)cc(C(F)(F)F)c2C#N)c1 | 18.8
11 | COc1cc2cc(C(=O)CCC(=O)O)sc2cc1OC + Cc1cccc(N(C)C(=O)C2C(O)CCN2c2nc(C)cc(C(F)(F)F)c2C#N)c1 | 84.8
12 | O=C(c1cc(Cc2n[nH]c(=O)c3ccccc23)ccc1F)N1CCN(C(=O)C2CC2)CC1 + COC1C(OC(N)=O)C(O)C(Oc2ccc3c(O)c(NC(=O)c4ccc(O)c(CC=C(C)C)c4)c(=O)oc3c2C)OC1(C)C | 88.7
13 | O=C(Nc1ccc(O)c(NS(=O)(=O)c2ccc(F)cc2)c1)c1ccc(-c2ccccc2)cc1 + Cc1cccc(N(C)C(=O)C2C(O)CCN2c2nc(C)cc(C(F)(F)F)c2C#N)c1 | 123
14 | COc1cc(C2c3cc4c(cc3C(OC3OC5COC(C)OC5C(O)C3O)C3COC(=O)C23)OCO4)cc(OC)c1O (configuration not stated) + Cc1cccc(N(C)C(=O)C2C(O)CCN2c2nc(C)cc(C(F)(F)F)c2C#N)c1 | 34.2
15 | CC1COCCN1c1cc(C2(S(C)(=N)=O)CC2)nc(-c2ccnc3[nH]ccc23)n1 (configuration not stated) + COC1C(OC(N)=O)C(O)C(Oc2ccc3c(O)c(NC(=O)c4ccc(O)c(CC=C(C)C)c4)c(=O)oc3c2C)OC1(C)C | 38.4
16 | COc1cccc2c1C(=O)c1c(O)c3c(c(O)c1C2=O)CC(O)(C(=O)CO)CC3OC1CC(N)C(O)C(C)O1 (configuration not stated) + Cc1cccc(N(C)C(=O)C2C(O)CCN2c2nc(C)cc(C(F)(F)F)c2C#N)c1 | 8.13

Same assay, conditions: second compound 0.316 µM; first compound 10 µM; stronger effect = lower value

Row | Compound | viability, T/C [%]
17 | COc1ccc([C@@H](O)c2cc(-c3ncnc4cc(N5CCOCC5)ccc34)c(F)cc2Cl)nn1 + COC1C(OC(N)=O)C(O)C(Oc2ccc3c(O)c(NC(=O)c4ccc(O)c(CC=C(C)C)c4)c(=O)oc3c2C)OC1(C)C | 35.1
18 | Nc1ccn(C2OC(CO)C(O)C2(F)F)c(=O)n1 (configuration not stated) + Cc1cccc(N(C)C(=O)C2C(O)CCN2c2nc(C)cc(C(F)(F)F)c2C#N)c1 | 18.1
19 | COc1cc2cc(C(=O)CCC(=O)O)sc2cc1OC + Cc1cccc(N(C)C(=O)C2C(O)CCN2c2nc(C)cc(C(F)(F)F)c2C#N)c1 | 93.8
20 | O=C(c1cc(Cc2n[nH]c(=O)c3ccccc23)ccc1F)N1CCN(C(=O)C2CC2)CC1 + COC1C(OC(N)=O)C(O)C(Oc2ccc3c(O)c(NC(=O)c4ccc(O)c(CC=C(C)C)c4)c(=O)oc3c2C)OC1(C)C | 85.2
21 | O=C(Nc1ccc(O)c(NS(=O)(=O)c2ccc(F)cc2)c1)c1ccc(-c2ccccc2)cc1 + Cc1cccc(N(C)C(=O)C2C(O)CCN2c2nc(C)cc(C(F)(F)F)c2C#N)c1 | 65.1
22 | COc1cc(C2c3cc4c(cc3C(OC3OC5COC(C)OC5C(O)C3O)C3COC(=O)C23)OCO4)cc(OC)c1O (configuration not stated) + Cc1cccc(N(C)C(=O)C2C(O)CCN2c2nc(C)cc(C(F)(F)F)c2C#N)c1 | 33.8
23 | CC1COCCN1c1cc(C2(S(C)(=N)=O)CC2)nc(-c2ccnc3[nH]ccc23)n1 (configuration not stated) + COC1C(OC(N)=O)C(O)C(Oc2ccc3c(O)c(NC(=O)c4ccc(O)c(CC=C(C)C)c4)c(=O)oc3c2C)OC1(C)C | 17.3
24 | COc1cccc2c1C(=O)c1c(O)c3c(c(O)c1C2=O)CC(O)(C(=O)CO)CC3OC1CC(N)C(O)C(C)O1 (configuration not stated) + Cc1cccc(N(C)C(=O)C2C(O)CCN2c2nc(C)cc(C(F)(F)F)c2C#N)c1 | 5.68

Same assay, conditions: second compound 1 µM; first compound 0.0316 µM; stronger effect = lower value

Row | Compound | viability, T/C [%]
25 | COc1ccc([C@@H](O)c2cc(-c3ncnc4cc(N5CCOCC5)ccc34)c(F)cc2Cl)nn1 + COC1C(OC(N)=O)C(O)C(Oc2ccc3c(O)c(NC(=O)c4ccc(O)c(CC=C(C)C)c4)c(=O)oc3c2C)OC1(C)C | 113
26 | Nc1ccn(C2OC(CO)C(O)C2(F)F)c(=O)n1 (configuration not stated) + Cc1cccc(N(C)C(=O)C2C(O)CCN2c2nc(C)cc(C(F)(F)F)c2C#N)c1 | 37.4
27 | COc1cc2cc(C(=O)CCC(=O)O)sc2cc1OC + Cc1cccc(N(C)C(=O)C2C(O)CCN2c2nc(C)cc(C(F)(F)F)c2C#N)c1 | 91.7
28 | O=C(c1cc(Cc2n[nH]c(=O)c3ccccc23)ccc1F)N1CCN(C(=O)C2CC2)CC1 + COC1C(OC(N)=O)C(O)C(Oc2ccc3c(O)c(NC(=O)c4ccc(O)c(CC=C(C)C)c4)c(=O)oc3c2C)OC1(C)C | 76.7
29 | O=C(Nc1ccc(O)c(NS(=O)(=O)c2ccc(F)cc2)c1)c1ccc(-c2ccccc2)cc1 + Cc1cccc(N(C)C(=O)C2C(O)CCN2c2nc(C)cc(C(F)(F)F)c2C#N)c1 | 91.3
30 | COc1cc(C2c3cc4c(cc3C(OC3OC5COC(C)OC5C(O)C3O)C3COC(=O)C23)OCO4)cc(OC)c1O (configuration not stated) + Cc1cccc(N(C)C(=O)C2C(O)CCN2c2nc(C)cc(C(F)(F)F)c2C#N)c1 | 116
31 | CC1COCCN1c1cc(C2(S(C)(=N)=O)CC2)nc(-c2ccnc3[nH]ccc23)n1 (configuration not stated) + COC1C(OC(N)=O)C(O)C(Oc2ccc3c(O)c(NC(=O)c4ccc(O)c(CC=C(C)C)c4)c(=O)oc3c2C)OC1(C)C | 96.1
32 | COc1cccc2c1C(=O)c1c(O)c3c(c(O)c1C2=O)CC(O)(C(=O)CO)CC3OC1CC(N)C(O)C(C)O1 (configuration not stated) + Cc1cccc(N(C)C(=O)C2C(O)CCN2c2nc(C)cc(C(F)(F)F)c2C#N)c1 | 75.8

Same assay, conditions: second compound 1 µM; first compound 0.1 µM; stronger effect = lower value

Row | Compound | viability, T/C [%]
33 | COc1ccc([C@@H](O)c2cc(-c3ncnc4cc(N5CCOCC5)ccc34)c(F)cc2Cl)nn1 + COC1C(OC(N)=O)C(O)C(Oc2ccc3c(O)c(NC(=O)c4ccc(O)c(CC=C(C)C)c4)c(=O)oc3c2C)OC1(C)C | 125
34 | Nc1ccn(C2OC(CO)C(O)C2(F)F)c(=O)n1 (configuration not stated) + Cc1cccc(N(C)C(=O)C2C(O)CCN2c2nc(C)cc(C(F)(F)F)c2C#N)c1 | 27.7
35 | COc1cc2cc(C(=O)CCC(=O)O)sc2cc1OC + Cc1cccc(N(C)C(=O)C2C(O)CCN2c2nc(C)cc(C(F)(F)F)c2C#N)c1 | 96.5
36 | O=C(c1cc(Cc2n[nH]c(=O)c3ccccc23)ccc1F)N1CCN(C(=O)C2CC2)CC1 + COC1C(OC(N)=O)C(O)C(Oc2ccc3c(O)c(NC(=O)c4ccc(O)c(CC=C(C)C)c4)c(=O)oc3c2C)OC1(C)C | 84.6
37 | O=C(Nc1ccc(O)c(NS(=O)(=O)c2ccc(F)cc2)c1)c1ccc(-c2ccccc2)cc1 + Cc1cccc(N(C)C(=O)C2C(O)CCN2c2nc(C)cc(C(F)(F)F)c2C#N)c1 | 80.3
38 | COc1cc(C2c3cc4c(cc3C(OC3OC5COC(C)OC5C(O)C3O)C3COC(=O)C23)OCO4)cc(OC)c1O (configuration not stated) + Cc1cccc(N(C)C(=O)C2C(O)CCN2c2nc(C)cc(C(F)(F)F)c2C#N)c1 | 78
39 | CC1COCCN1c1cc(C2(S(C)(=N)=O)CC2)nc(-c2ccnc3[nH]ccc23)n1 (configuration not stated) + COC1C(OC(N)=O)C(O)C(Oc2ccc3c(O)c(NC(=O)c4ccc(O)c(CC=C(C)C)c4)c(=O)oc3c2C)OC1(C)C | 80.3
40 | COc1cccc2c1C(=O)c1c(O)c3c(c(O)c1C2=O)CC(O)(C(=O)CO)CC3OC1CC(N)C(O)C(C)O1 (configuration not stated) + Cc1cccc(N(C)C(=O)C2C(O)CCN2c2nc(C)cc(C(F)(F)F)c2C#N)c1 | 34.2

Same assay, conditions: second compound 1 µM; first compound 0.316 µM; stronger effect = lower value

Row | Compound | viability, T/C [%]
41 | COc1ccc([C@@H](O)c2cc(-c3ncnc4cc(N5CCOCC5)ccc34)c(F)cc2Cl)nn1 + COC1C(OC(N)=O)C(O)C(Oc2ccc3c(O)c(NC(=O)c4ccc(O)c(CC=C(C)C)c4)c(=O)oc3c2C)OC1(C)C | 111
42 | Nc1ccn(C2OC(CO)C(O)C2(F)F)c(=O)n1 (configuration not stated) + Cc1cccc(N(C)C(=O)C2C(O)CCN2c2nc(C)cc(C(F)(F)F)c2C#N)c1 | 26.6
